Assay results taken from article PMC8246065 (The EMBO Journal, 2021).

Tests used:
[1] = system: HeLa inducible NOD1 or NOD2 cells; test: ELISA of IL6/IL8 in supernatants of HeLa inducible NOD1 or NOD2 cells; format: cell-based, human; details: for Effect of inhibitor on IL6 production by cytosolic S1P: inhibitor pretreatment, S1P 10 µM with digitonin (5 µg/ml), Appendix Fig S3A-D; for IL6 production: lipid 10 µM, Appendix Fig S3E,F; for IL6 production upon stressor stimulation: Fig 1A-1D; for IL6 production in the presence of dynasore: Fig EV1D,E (S2B-S2E in rebuttal)
Protocol: (§1) To differentiate THP‐1 into macrophage‐like cells, THP‐1 cells were stimulated with 50 ng/ml phorbol 12‐myristate 13‐acetate (Sigma‐Aldrich, P8139) for 24 h and then incubated with fresh medium for another 48 h. […] To induce NOD1 or NOD2 expression, HeLa NOD1 or NOD2 cells were treated with 0.5 µg/ml or 0.25 µg/ml doxycycline for at least 16 h, respectively. All cells have been checked for mycoplasma contamination regularly. Bone marrow‐derived macrophages (BMDMs) were obtained from tibial and femural bones and generated with DMEM containing 20% L929 cell supernatant, 10% FBS, 5% heat‐inactivated horse serum, 1 mM sodium pyruvate, and 2 mM L‐glutamine. For BMDM stimulation experiments, BMDMs were treated with IFN‐γ (20 ng/ml) overnight before stimulation.

[2] = system: HEK293T NOD1/2 KO cells transfected with NOD1 or NOD2 mutants; test: IL8 ELISA of HEK293T cells transfected with NOD1/NOD2 mutants; format: cell-based, human; details: for IL8 production in cells expressing LRR-deficient NOD1/2 (NOD1/2∆LRR): 20 µM with digitonin, 20 h
Protocol: as §1
The mutagenesis was performed with Q5® site‐directed mutagenesis kit (E0554, NEB) according to the manufacturer's instructions. The primers used in this study were as follows: NOD1 E157A F: 5′‐[…]gcg[…]‐3′, NOD1 E157A R: 5′‐[…]‐3′, NOD1 D161A F: 5′‐[…]gcg[…]‐3′, NOD1 D161A R: 5′‐[…]‐3′, NOD1 D203A F: 5′‐[…]gcg[…]‐3′, D203A R: 5′‐[…]‐3′, L218A F: 5′‐[…]gcg[…]‐3′, L218A R: 5′‐[…]‐3′, R237A F: 5′‐[…]gcg[…]‐3′, R237A R: 5′‐[…]‐3′, H257A F: 5′‐[…]gcg[…]‐3′, H257A R: 5′‐[…]‐3′, E267A F: 5′‐[…]gcg[…]‐3′, E267A R: 5′‐[…]‐3′, H290A F: 5′‐[…]gcg[…]‐3′, H290A R: 5′‐[…]‐3′, E306A F: 5′‐[…]gcg[…]‐3′, E306A R: 5′‐[…]‐3′, K324A F: 5′‐[…]gcg[…]‐3′, K324A R: 5′‐[…]‐3′, K328A F: 5′‐[…]gcg[…]‐3′, K328A R: 5′‐[…]‐3′, R340A F: 5′‐[…]gcg[…]‐3′, R340A R: 5′‐[…]‐3′, R344A F: 5′‐[…]gcg[…]‐3′, R344A R: 5′‐[…]‐3′, R350A F: 5′‐[…]gcg[…]‐3′, R350A R: 5′‐[…]‐3′, D372A F: 5′‐[…]gcg[…]‐3′, D372A R: 5′‐[…]‐3′, R373A F: 5′‐[…]gcg[…]‐3′, R373A R: 5′‐[…]‐3′, R399A F: 5′‐[…]gcg[…]‐3′, R399A R: 5′‐[…]‐3′, D423A F: 5′‐[…]gcg[…]‐3′, D423A R: 5′‐[…]‐3′, R435A F: 5′‐5′‐[…]gcg[…]‐3′, R435A R: 5′‐[…]‐3′, Q484A F: 5′‐[…]gcg[…]‐3′, Q484A R: 5′‐[…]‐3′, L495A F: 5′‐[…]gcg[…]‐3′, L495A R: 5′‐[…]‐3′, E514A F: 5′‐[…]gcg[…]‐3′, E514A R: 5′‐[…]‐3′, H517A F: 5′‐[…]gcg[…]‐3′, H517A R: 5′‐[…]‐3′, L540A F: 5′‐[…]gcg[…]‐3′, L540A R: 5′‐[…]‐3′, F544A F: 5′‐[…]gcg[…]‐3′, and F544A R: 5′‐[…]‐3′.

NOD2 = NOD2 (Homo sapiens, UniProt Q9HC29); test: Microscale thermophoresis (MST) binding to purified NOD2-GFP
Protocol: (§2) The lysates were incubated with 2 ml GFP‐Trap agarose at 4°C for 4 h. The agarose was collected with Poly‐Prep columns by gravity flow. […] To remove heat shock proteins, columns were further washed with 50 ml wash buffer III (50 mM Tris–HCl, pH 7.5, 150 mM NaCl, 5 mM MgCl2+, 1 mM ATP). To elute the proteins, the agarose was mixed with 2 ml elution buffer (100 mM Glycine, pH 2.5) for 1 min and the eluted proteins were immediately neutralized with 0.2 ml of 1 M Tris, pH 10.5.

NOD1 = target: T1, NOD1 (Homo sapiens, UniProt Q9Y239); test: Microscale thermophoresis (MST) binding to purified NOD1-GFP
T1 sequence (Q9Y239 1-953): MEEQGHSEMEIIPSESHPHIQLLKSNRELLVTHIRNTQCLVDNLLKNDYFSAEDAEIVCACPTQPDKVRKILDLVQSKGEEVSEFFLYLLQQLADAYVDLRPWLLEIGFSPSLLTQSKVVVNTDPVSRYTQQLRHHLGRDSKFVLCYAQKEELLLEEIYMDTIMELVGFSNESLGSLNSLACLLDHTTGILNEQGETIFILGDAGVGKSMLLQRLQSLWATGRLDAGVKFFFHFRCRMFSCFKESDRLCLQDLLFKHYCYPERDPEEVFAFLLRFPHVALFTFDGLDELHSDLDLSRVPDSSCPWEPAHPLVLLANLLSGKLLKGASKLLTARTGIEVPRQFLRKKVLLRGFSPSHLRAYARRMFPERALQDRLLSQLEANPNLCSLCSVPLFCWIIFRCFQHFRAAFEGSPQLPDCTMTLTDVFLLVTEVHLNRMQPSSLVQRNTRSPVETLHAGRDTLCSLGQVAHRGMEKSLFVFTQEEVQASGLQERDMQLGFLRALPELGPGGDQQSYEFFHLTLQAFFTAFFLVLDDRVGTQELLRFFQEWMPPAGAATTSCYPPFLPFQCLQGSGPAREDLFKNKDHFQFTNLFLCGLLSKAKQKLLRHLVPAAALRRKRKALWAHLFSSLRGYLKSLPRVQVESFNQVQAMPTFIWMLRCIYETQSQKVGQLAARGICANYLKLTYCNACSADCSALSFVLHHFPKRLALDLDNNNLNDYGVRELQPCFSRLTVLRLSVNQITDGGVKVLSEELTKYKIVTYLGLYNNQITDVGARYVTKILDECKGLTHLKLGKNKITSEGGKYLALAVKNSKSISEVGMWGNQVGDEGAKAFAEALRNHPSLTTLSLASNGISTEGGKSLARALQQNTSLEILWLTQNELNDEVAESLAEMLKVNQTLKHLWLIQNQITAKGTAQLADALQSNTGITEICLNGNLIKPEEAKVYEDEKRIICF
Protocol: as §2

Sequence of NOD2 (Q9HC29 whole entry): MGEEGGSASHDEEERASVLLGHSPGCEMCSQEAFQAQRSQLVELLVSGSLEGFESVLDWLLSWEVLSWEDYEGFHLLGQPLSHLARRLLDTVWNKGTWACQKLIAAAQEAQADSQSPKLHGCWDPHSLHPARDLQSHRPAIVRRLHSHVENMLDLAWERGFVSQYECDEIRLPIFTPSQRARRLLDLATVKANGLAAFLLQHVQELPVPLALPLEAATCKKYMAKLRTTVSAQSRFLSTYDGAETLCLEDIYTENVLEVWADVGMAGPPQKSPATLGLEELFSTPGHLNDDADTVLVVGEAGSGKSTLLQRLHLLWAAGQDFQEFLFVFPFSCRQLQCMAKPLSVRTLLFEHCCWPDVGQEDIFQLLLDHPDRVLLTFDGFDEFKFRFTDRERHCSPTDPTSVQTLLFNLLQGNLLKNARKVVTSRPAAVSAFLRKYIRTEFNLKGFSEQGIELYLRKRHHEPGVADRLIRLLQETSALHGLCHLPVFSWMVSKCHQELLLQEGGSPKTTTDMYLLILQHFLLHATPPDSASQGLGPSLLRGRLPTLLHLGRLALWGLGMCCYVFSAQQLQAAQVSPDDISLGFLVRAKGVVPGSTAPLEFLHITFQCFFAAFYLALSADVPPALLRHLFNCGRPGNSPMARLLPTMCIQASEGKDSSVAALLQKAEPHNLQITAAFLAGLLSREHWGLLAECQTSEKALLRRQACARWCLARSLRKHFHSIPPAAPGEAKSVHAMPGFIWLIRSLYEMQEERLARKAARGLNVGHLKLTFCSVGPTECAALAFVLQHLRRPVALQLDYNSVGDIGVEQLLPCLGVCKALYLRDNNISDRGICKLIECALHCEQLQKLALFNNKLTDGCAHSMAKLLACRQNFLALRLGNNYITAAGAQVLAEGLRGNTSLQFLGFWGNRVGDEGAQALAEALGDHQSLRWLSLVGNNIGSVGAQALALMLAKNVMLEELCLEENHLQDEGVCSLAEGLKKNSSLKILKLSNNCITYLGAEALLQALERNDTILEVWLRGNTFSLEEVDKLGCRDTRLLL

Row | Compound | Effect of inhibitor on IL6 production by cytosolic S1P [1] | IL6 production in the presence of dynasore ([1]; Dynasore 50 µM) | other results
1 | CCCCCCCCc1ccc(CCC(N)(CO)CO)cc1 [FTY720] | failed to block |  | 
2 | CCCCCCCCCCCCC/C=C/[C@@H](O)[C@@H](N)CO [sphingosine] |  |  | IL6 production [1]: did not induce IL6 production
3 | C[C@H]1CCC/C=C/[C@@H]2C[C@H](O)C[C@H]2[C@H](O)/C=C/C(=O)O1 [BFA, brefeldin A] |  |  | IL6 production upon stressor stimulation [1]: did not induce IL6 production
4 | CC(=O)N[C@@H]1[C@@H](O[C@H](C)C(=O)N[C@@H](C)C(=O)N[C@H](CCC(=O)O)C(N)=O)[C@H](O)[C@@H](CO)O[C@H]1O [MDP] |  | impaired | IL8 production in cells expressing LRR-deficient NOD1/2 (NOD1/2∆LRR) [2]: not; IL8 production / activation in HEK293T cells expressing NOD2 1007fs ([2]; 20 µM, 48 h, digitonin): unresponsive; Binding affinity of NOD2 for MDP in the presence or absence of S1P (NOD2; Fig 6H, S1P 2 µM): not affected
5 | Cc1cc(CN)cc(C)c1NC(=O)c1ccc(-c2cc(Cl)ccc2Cl)o1 [CYM50358] | failed to block |  | 
6 | CCCCCCc1cccc(NC(=O)[C@H](N)CCP(=O)(O)O)c1 [W146] | failed to block |  | 
7 | CCCCCCCCCCCCC/C=C/[C@@H](O)[C@H](CO)NC(=O)CCCCCCCCCCCCCCC [C16 ceramide] |  |  | Interaction with NOD2 by MST (NOD2; Fig EV5C): not detected; IL6 production [1]: did not induce IL6 production; Interaction with NOD1 by MST (NOD1; Fig EV5B): not detected
8 | CCCCCCCCc1cccc(NC(=O)[C@H](N)COP(=O)(O)O)c1 [VPC23019] | failed to block |  | 
9 | C=C1[C@@H](C)[C@H]2[C@H](Cc3ccccc3)NC(=O)[C@]23[C@H](OC(C)=O)/C=C/[C@@](C)(O)C(=O)[C@@H](C)C/C=C/[C@H]3[C@@H]1O [cytochalasin D] |  | higher IL6 production | 
10 | CC(C)(C)S(=O)(=O)c1ccc2nccc(Nc3n[nH]c4ccc(F)cc34)c2c1 [GSK583] | abolished |  | 
11 | CCCCC[C@H](CC(=O)NO)C(=O)N[C@H](C(=O)N1CCC[C@H]1CO)C(C)C [actinonin] |  | higher IL6 production | 
12 | CCCCCCCCCCCCC/C=C/[C@@H](O)[C@H](CO)NC(C)=O [C2 ceramide] |  |  | IL6 production [1]: did not induce IL6 production
13 | Cc1nn(C)c2nc(NNC(=O)Nc3c(Cl)cncc3Cl)cc(C(C)C)c12 [JTE013] | failed to block |  | 
14 | pertussis toxin | failed to block |  | 
15 | CC[C@@]1([C@@H]2O[C@@H]([C@H]3O[C@@](O)(CO)[C@H](C)C[C@@H]3C)C[C@@H]2C)CC[C@H]([C@]2(C)CC[C@]3(C[C@H](O)[C@@H](C)[C@@H]([C@@H](C)[C@@H](OC)[C@H](C)C(=O)O)O3)O2)O1 [monensin] |  |  | IL6 production upon stressor stimulation [1]: did not induce IL6 production
16 | COC(=O)Nc1nc2ccc(C(=O)c3cccs3)cc2[nH]1 [nocodazole] |  | higher IL6 production | 
17 | N[C@H](CCC(=O)N[C@H](CCC[C@H](N)C(=O)O)C(=O)O)C(=O)O [iE-DAP] |  | impaired | IL8 production in cells expressing LRR-deficient NOD1/2 (NOD1/2∆LRR) [2]: not; Activation (IL8) of NOD1 K328A or H517A ([2]; Fig EV5H): activated; Binding affinity of NOD1 for iE-DAP in the presence or absence of S1P (NOD1; Fig 6G, S1P 2 µM): not affected
18 | CC(=O)O[C@H]1C(=O)[C@@]2(C)[C@H]([C@H](OC(=O)c3ccccc3)[C@]3(O)C[C@H](OC(=O)[C@H](O)[C@@H](NC(=O)c4ccccc4)c4ccccc4)C(C)=C1C3(C)C)[C@]1(OC(C)=O)CO[C@@H]1C[C@@H]2O [paclitaxel] |  | higher IL6 production | 
19 | CC(=O)c1ncc([C@@H](O)[C@H](O)[C@H](O)CO)[nH]1 [THI] | higher IL6 production |  | 
20 | O=C(N/N=C/c1ccc(O)c(O)c1)c1cc2ccccc2cc1O [Dynasore] |  |  | Effect of endocytosis inhibition on IL6 production in response to stress stimulations ([1]; Dynasore 50 µM): not blocked
